Like-named read-outs stand apart in the source and are kept apart here.
Tests used:
[1] = system: LoVo colorectal adenocarcinoma cell line; assay: Cell proliferation assay (ATPlite), LoVo; format: cell-based, human; settings: 5 day proliferation assay
Protocol: (§1) Cell proliferation assays were carried out as described using ATPlite 1step™ (Perkin Elmer, Groningen, The Netherlands). Exposure time was 72 or 120 hours as indicated in the Legends to the Figures. Percentage growth was calculated, relative to the growth of unexposed cells, and relative IC50s were fitted using a four-parameter logistics curve (XLfit 5.3, IDBS). For Figure 4A and 7 dose response curves were redrawn in Prism. To compare the inhibitory potency of compounds in proliferation assays with HCT 116 parental and tetraploid clones, pIC50 (−^10logIC50) values were compared in three independent experiments. A two-tailed Student's t-test was performed to determine whether differences in sensitivity (ΔpIC50) were statistically significant. Caspase 3/7 activity of cancer cells was measured using Caspase-Glo 3/7 Assay kit (cat no. G8093, Promega, Madison USA). Viability of T-ALL cell samples was determined using ATPlite and exposure of 72 hours as described previously.

[2] = system: LoVo colorectal adenocarcinoma cell line; settings: three day cell proliferation assay; cited from earlier work
[3] = system: patient-derived colorectal carcinoma organoids; assay: Organoids drug sensitivity and viability assay; format: cell-based, human
Protocol: The establishment and characterization of the human colon cancer organoids has been described. The organoids were cultured in drops of Geltrex LDEV-Free Reduced Growth Factor Basement Membrane Matrix (Gibco, cat no. A1413202) in DMEM/F12 medium (Thermo), supplemented with 1% (v/v) penicillin/streptomycin (Gibco), 1% Hepes buffer, pH7.5, 1% L-glutamine (Gibco), 1 μg/mL R-spondin (Sigma), 100 ng/mL Noggin (Peprotech), B27 vitamin A-free (Invitrogen, cat no. 12587010), 1 mM n-acetyl cysteine (Sigma), 10 mM nicotinamide (Sigma), 50 ng/mL EGF (BD Biosciences), 500 nM A83-01 (Tocris), 10 μM SB202190 (Sigma), 10 μM Y-27632 (Sigma) and 10 nM Prostaglandin E2 (Cayman). Medium was refreshed every four days and organoids were splitted by treatment with TryPLE Express (Gibco, cat. no. 12604013).
Organoids were dissociated by TryPLE Express treatment and filtered using a 40 μm nylon cell strainer (Falcon). The organoids were re-suspended in Geltrex at a density of 250,000 cells/mL and seeded in the wells of 96-well plates (Corning, cat no. 3903) at 10 μl per well. Compounds were added four days after plating and 72 hours later viability was determined using Cell-Titer Glo 3D Cell Viability Assay (Promega, Madison USA). Experiments were performed in three biological replicates and technical triplicates were averaged per experiment.

[4] = system: HCT 116, HPT1, HPT2 and HPT4 cells; assay: Time-lapse microscopy, HCT 116 and post-tetraploid clones; format: cell-based, human; settings: 100 nM, post-tetraploid clones and parental cell line
Protocol: HCT 116 diploid and tetraploids stably expressed green fluorescent protein-tagged histone 2B (H2B-GFP). All other cell lines were pre-incubated with SiR-DNA (Spirochrome, Switzerland) in order to visualize DNA. Cells were cultured in Leibovitz L15 CO2-independent cell culture medium in 6-well glass bottom chamber (LabTek Corp., Australia) and synchronized by treatment with 2 mM thymidine. After 24 hours of synchronization, and 4 hours before the start of the imaging experiment, medium was replaced by medium without thymidine. […] Image Z-stacks were acquired with 3-μm intervals using a sCMOS camera (DeltaVision RT; Applied Precision, GE Healthcare, Issaquah, WA) and processed using ImageJ software (NIH, Bethesda, MD, USA). Chromosome mis-segregation phenotypes co-occurred and many combinations existed. For clarity, all the events were scored and included: more than two phenotypes, mitotic slippage, DNA bridge, micro-nuclei and multipolar spindle.

[5] = system: post-tetraploid HPT4 cells; assay: Cell proliferation assay, post-tetraploid HPT4; format: cell-based, human; settings: HPT4, five days
Protocol: Cancer cell lines and hTERT-RPE1 retinal pigment epithelial cells were purchased from the American Type Culture Collection (ATCC) (Manassas, VA, U.S.A.) from 2011 to 2014 [41] and cultured in ATCC-recommended media. All experiments were carried out within nine passages of the original vials from ATCC who authenticated the cancer cell lines by short tandem repeat analysis. We verified the mutant status of seven frequently mutated cancer genes (i.e., BRAF, CDKN2A, CTNNB1, EGFR, KRAS, PIK3CA and TP53) by full exome or targeted sequencing. Sequencing results were compared to COSMIC version 75 of the Genomics of Drug Sensitivity in Cancer data base and provided additional authentication of the identity of the cell lines. The isolation and characterization of post-tetraploid clones from HCT 116 has been described previously. The mutation status of the CDKN2A, CTNNB1, KRAS and PIK3CA genes were confirmed by sequence analysis in both the HCT 116 parental cell line and post-tetraploid clones. All experiments were carried out within nine passages of the original cell stocks that were transferred from the Max Planck Institute of Biochemistry (Martinsried, Germany) to Netherlands Translational Research Center.
as §1

[6] = system: pediatric T-ALL patient cell samples; assay: Viability assays with T-ALL patient samples; format: cell-based, human; settings: read-out: IC50
Protocol: Written informed consent was obtained from the parents or legal guardians of each T-ALL patient to use excess diagnostic material for research purposes. The study was performed in accordance with the Institutional Review Board of the Erasmus Medical Center Rotterdam (The Netherlands) and in accordance with the Declaration of Helsinki. Leukemic cells were harvested from blood or bone marrow samples and were enriched to ≥ 90% purity.
as §1

[7] = system: A-172 glioblastoma cell line; assay: Cell proliferation assay (ATPlite), A-172; format: cell-based, human; settings: 5 day proliferation assay
Protocol: as §1

[8] = system: MG-63 osteosarcoma cell line; assay: Cell proliferation assay (ATPlite), MG-63; format: cell-based, human; settings: 5 day proliferation assay
Protocol: as §1

CCc1cccc(CC)c1NC(=O)c1ccn2c1CCc1cnc(Nc3ccc(N4CCN(C)CC4)cc3OC)nc1-2 [NTRC 0066-0]
IC50 [1]: 0.035 µM
IC50 [2]: 0.04 µM
ΔpIC50 ([3]; All organoids, NTRC 0066-0 vs reversine): 1.17
pIC50 ([3]; All organoids, geometric average): 7.59
ΔpIC50 ([3]; organoid p14, NTRC 0066-0 vs reversine): 1.34
pIC50 ([3]; organoid p14, three days): 7.65
IC50 ([3]; organoid p14, three days, read-out: IC50): 0.0225 µM
pIC50 ([3]; organoid p18, three days): 7.68
IC50 ([3]; organoid p18, three days, read-out: IC50): 0.0221 µM
ΔpIC50 ([3]; organoid p28, NTRC 0066-0 vs reversine): 1.22
pIC50 ([3]; organoid p28, three days): 7.43
IC50 ([3]; organoid p28, three days, read-out: IC50): 0.037 µM
times more potent than reversine ([3]; organoids): 10 times
IC50 ([3]; organoids from three different patients, read-out: average IC50): 0.027 µM
time-in-mitosis [4]: 20 min
Efficacy (%) ([5]; average of three experiments): 48%
IC50 ([5]; geometric average of three experiments): 0.044 µM
IC50 ([6]; all ten T-ALL patient samples, three days): ≥ 5 µM
IC50 ([6]; patient sample 491, three-day assay): 5 µM
IC50 ([6]; patient sample 1033, three-day assay): 5.1 µM
IC50 ([6]; patient sample 1816, three-day assay): 8.1 µM
IC50 ([6]; patient sample 2323, three-day assay): 7.1 µM
IC50 ([6]; patient sample 3594, three-day assay): 4.8 µM
IC50 ([6]; patient sample 3852, three-day assay): 4.9 µM
IC50 ([6]; patient sample 4023, three-day assay): 5.4 µM
IC50 ([6]; patient sample 4126, three-day assay): 9.2 µM
IC50 ([6]; patient sample 4992, three-day assay): 4.9 µM
IC50 ([6]; patient sample 10110, three-day assay): 4.5 µM
IC50 [7]: 0.034 µM
IC50 [8]: 0.26 µM

— publication PMC5503534, “Stable aneuploid tumors cells are more sensitive to TTK inhibition than chromosomally unstable cell lines” (Oncotarget, 2017)
